Assay results: patent US20090186915A1, “Compositions and methods for treatment of glioblastoma, gliosarcoma, NSCLC, and head and neck cancer” (Unibioscreen S. A., priority 2006, published 2009)

Assays:
PC-3 [1] = experiment: Autophagy: acidic vesicular organelles, acridine orange flow cytometry, PC-3; type: cell-based, human; details: red fluorescence, up to 10 μM
Protocol: (§1) The cytoplasm and nucleus fluoresce green in acridine orange-stained cells, and the acidic compartments fluoresce red. The intensity of the red fluorescence is proportional to the degree of acidity and the volume of acidic vesicular organelles, including autophagic vacuoles. To quantify the development of acidic vesicular organelles, the cells were stained with acridine orange for 15 minutes and removed from the plate with trypsinization. Cells were then analyzed by flow cytometry. Each sample was evaluated in triplicate.

DU-145 [2] = experiment: Autophagy: acidic vesicular organelles, acridine orange flow cytometry, DU-145; type: cell-based, human; details: red fluorescence, up to 10 μM
Protocol: as §1

DU-145 [3] = experiment: Lysosomal membrane permeabilization (LMP), DU-145; type: cell-based, human; details: 72 hours, 10 μM
From the text: It is well known that lysosomes control cell death at several levels. In response to endogenous or exogenous stress (including chemotherapy), lysosomal membrane permeabilization (LMP) can occur, leading to the release of catabolic hydrolases that can mediate caspase-dependent apoptosis, caspase-independent apoptosis-like cell death or even necrosis following high levels of LMP.

BFU-E = experiment: HALO hematotoxicity assay, mouse BFU-E; type: cell-based; details: 5 days culture, iATP
Protocol: (§2) Investigation of the hematotoxic potential of UNBS5162 was undertaken by HemoGenix (Colorado Springs, Colo.). The effects of UNBS5162 on stem and progenitor cell populations from murine and human bone marrow were assessed using HALO (Hematopoietic/Hematotoxicity Assay through Luminescence Output) technology. Stem and hematopoietic progenitor cell populations were isolated from mouse and human bone marrow samples, plated at a concentration of 1.0×10^4 cells/well and cultured for 5 and 7 days, respectively, in the presence of growth factors and increasing concentrations of UNBS5162 ranging from 0.5 nM to 50 μM. The proliferative or growth potential of cell populations was determined from intracellular ATP (iATP) concentrations and a luciferin/luciferase bioluminescence signal detection system. All samples were assayed in eight replicates. The results are presented as estimated inhibitory concentration (IC) values.

Mk-CFC = experiment: HALO hematotoxicity assay, human Mk-CFC; type: cell-based; details: 7 days culture, iATP
Protocol: as §2

PC-3 [4] = experiment: Quantitative videomicroscopy, PC-3; type: cell-based, human
Protocol: Use was made of computer-assisted phase-contrast microscopy (quantitative videomicroscopy) in the attempt to elucidate an overall picture of UNBS5162's mechanism of action. […] In addition, 10 μM UNBS5162 caused a marked enlargement in PC-3 cells by the end of the 6-day treatment period compared with the start of the experiment.

Rb, pRb = experiment: Western blot of Rb and p-Rb, DU-145; type: cell-based, human; details: 10 μM
E2F1 = E2F1 expression (Western blot, RT-PCR), PC-3; type: cell-based, human; details: 10 μM
Protocol: Reverse transcription reactions were carried out in a thermal cycler (Thermocycler; Westburg, Leusden, The Netherlands). The purification of the cDNAs produced was undertaken using the High Pure PCR Product Purification Kit (Roche Diagnostics, Mannheim, Germany) in accordance with the manufacturer's instructions. Quantitative PCR reactions were performed with 50 ng of purified cDNA in a LightCycler thermocycler instrument (Roche Diagnostics) using LCFastart DNA Master SYBR Green 1 (Roche Diagnostics). After amplification, data analysis was carried out by means of the “Fit points” algorithm of the LightCycler quantification software. A standard curve enabled cDNA quantification of samples to be effected. […]
Cell extracts were prepared by the lysis of subconfluent PC-3 cells directly in boiling lysis buffer (10 mM Tris, pH 7.4, 1 mM Na3O4V, 1% SDS, pH 7.4). Approximately 40 μg of extracted proteins (evaluated by the bicinchoninic acid protein assay; Pierce, Perbio Science, Erembodegem, Belgium) was then loaded onto a denaturing polyacrylamide gel. The proteins submitted to Western blot analyses were detected using primary antibodies provided by: 1) CST Technologies, Bioké, Leiden, The Netherlands: Rb (1:2000) and p-Rb (1:1000); 2) BD Transduction Laboratories, Erembodegem, Belgium: E2F1 (1:400); and 3) AbCam, Cambridge, UK: tubulin (1:3000, used as a loading control). […]

LC3-II = LC3-II immunoblot, DU-145; type: cell-based, human; details: 10 μM
Hs683 or U373 cells = experiment: Apoptosis by Annexin V-FITC flow cytometry, glioma cells; type: cell-based, human; details: 10 μM for 72 h
Protocol: UNBS5162-induced apoptotic effects as evaluated by flow cytometry with Annexin V-FITC staining of Hs683 or U373 cells either left untreated (0 μM) or treated with 1 and 10 μM UNBS5162 for 72 h, either as a single treatment (gray bars) or as repeated (“chronic”; black bars) treatment (i.e. 1 μM or 10 μM each day for five days, “5×1”). The data are presented as means+SEM. “*” means that all GBM cells died before the end of the experiment.

CCL2, CXCL-I and CXCL-8 = experiment: ELISA of CCL2, CXCL1 and CXCL8, Hs683 cells; type: cell-based, human; details: 1 μM single or 5×1
[5] = Body weight of MXT-HI tumor-bearing mice; type: in vivo, female B6D2F1 mice; details: for Mean body weight: UNBS5162 i.v. (5i × 3w) 10 mg/kg, alone or with 10 gray
MXT-HI mammary tumor = experiment: Syngeneic MXT-HI mammary tumor s.c., with or without irradiation; details: for Mean tumor size: UNBS5162 i.v. (5i × 3w) 10 mg/kg, alone or with 10 gray; for Number of mice dead or sacrificed: 11 mice per group
Protocol: The MXT-HI models used in our laboratory involve subcutaneously injecting MXT-HI tumor fragments into the flanks of B6D2F1 mice.
After the adaptation period, animals were inoculated subcutaneously with MXT-HI tumor. Briefly, “bank animals” were sacrificed and MXT-HI tumors were isolated from the animals, kept in saline solution and minced into 1 mm^3 pieces. These pieces (one/animal) were randomly s.c. inoculated into the right flanks of mice by means of a trocar.
UNBS5162 was dosed intravenously in accordance with UNBS procedure #002. The dosing volume was fixed at 200 μL/mouse. Group 1: Control (lactic acid vehicle) (5i/week×3 weeks) Group 2: UNBS5162 (10 mg/kg, 5i/week×3 weeks) Group 3: Irradiated (10 gray, 1 irradiation) Group 4: Irradiated (10 gray, 1 irradiation)+UNBS5162 (10 mg/kg, 5i/week×3 weeks) For group 4, the first administration of UNBS5162 was performed at the morning of the day of irradiation (5 Dec. 2007).
Briefly, animals were anaesthetized, using a syringe, with 150 μl of Rompun/Ketalar mixture (1 part Rompun/1 part Ketalar/4.5 parts saline) injected intraperitoneally. After approximately 5 minutes and after verification that animals were completely asleep, an irradiation simulation was performed first to focalise irradiation in the tumor centre and to avoid to irradiate healthy tissue. Simulation was performed individually on each animal to adapt irradiation to tumor size. In a second time, the tumor was irradiated with a dose of 10 gray (5 MV photons from a linear accelerator at a source skin distance of 1 m).
For technical reasons, irradiation was not performed the same day for all animals. Tumor irradiation was performed on day 14 post-graft for group 4 (irradiated+UNBS5162) and on day 16 post-graft for group 3 (irradiated alone).
Tumor growths were recorded 3 times weekly on Monday, Wednesday and Friday.
Statistical comparisons between the control group and the treated groups were performed with the non-parametric Mann-Whitney U-test. Survival analysis was done either by calculating the % T/C-value or with Kaplan-Meier analysis and Log-rank statistics. All statistical analyses were carried out using Statistica software (Statsoft, Tulsa, Okla.). The cut-off level for statistical significance was set at a p-value of p<0.05.
The T/C-values were calculated by dividing the day of death or sacrifice of the median mouse in a treated group T by the day of death or sacrifice of the median mouse in the control group C, the latter said to be 100%.

[6] = UNBS5162 10 mg/kg i.v. 5i×3w, alone or with 1×10 gray

## CN(C)CCN1C(=O)c2cccc3cc(NC(N)=O)cc(c23)C1=O [UNBS5162, N-{2-[2-(dimethylamino)ethyl]-1,3-dioxo-2,3-dihydro-1H-benzo[de]isoquinolin-5-yl}urea]
PC-3 [1]
  pro-autophagic effects (acidic vesicular organelles): had a proautophagic effect
PC-3 [1]; listed as example 2
  pro-autophagic effects (acidic vesicular organelles): pro-autophagic effects
DU-145 [2]
  pro-autophagic effects (acidic vesicular organelles): had a proautophagic effect
DU-145 [2]; listed as example 2
  pro-autophagic effects (acidic vesicular organelles): pro-autophagic effects
DU-145 [3]
  lysosomal membrane permeabilization (LMP): a marked drug-induced LMP process appeared
BFU-E; 120 h
  IC50: 5.53 µM
  IC90: 9.11 µM
BFU-E
  IC75: 7.03 µM
Mk-CFC; 168 h
  IC50: 4.05 µM
  IC90: 20.1 µM
Mk-CFC
  IC75: 9.22 µM
PC-3 [4]; 1 μM
  cell dynamics (videomicroscopy): induced no detectable changes
PC-3 [4]; 10 μM, six days of observation
  cell population development (videomicroscopy): prevented PC-3 cell population development
Rb, pRb
  Rb protein expression: a decrease but not the complete disappearance of Rb protein and E2F1 expression
E2F1
  E2F1 expression at protein and mRNA levels: dramatic decrease in E2F1 expression
LC3-II
  LC3-II protein (marker of autophagy): induced the up-regulation of LC3-II protein
Hs683 or U373 cells
  apoptotic events (Annexin V-FITC): induces moderate apoptotic events
CCL2, CXCL-I and CXCL-8
  CCL2, CXCL-I and CXCL-8 production (ELISA): a marked UNBS5162-mediated decrease in CCL2, CXCL-I and CXCL-8 production
[5]; Day 14
  Mean body weight: 22.13 g
[5]; Day 16
  Mean body weight: 23.39 g
[5]; Day 19
  Mean body weight: 25.72 g
[5]; Day 21
  Mean body weight: 24.35 g
[5]; Day 23
  Mean body weight: 25.46 g
[5]; Day 26
  Mean body weight: 28.52 g
[5]; [6]
  changes in body weights compared to control: No significant changes in body weights
MXT-HI mammary tumor; Day 14
  Mean tumor size: 178.52 mm^2
MXT-HI mammary tumor; Day 16
  Mean tumor size: 250.08 mm^2
MXT-HI mammary tumor; Day 19
  Mean tumor size: 414.11 mm^2
MXT-HI mammary tumor; Day 21
  Mean tumor size: 423.71 mm^2
MXT-HI mammary tumor; Day 23
  Mean tumor size: 481.56 mm^2
MXT-HI mammary tumor; Day 26
  Mean tumor size: 619.21 mm^2
MXT-HI mammary tumor; [6]
  effect on tumor area: no relevant effects
  survival of MXT-HI-bearing mice: No prolongation of survival
MXT-HI mammary tumor; day 19 post graft
  Number of mice dead or sacrificed: 1
MXT-HI mammary tumor; day 21 post graft
  Number of mice dead or sacrificed: 2
MXT-HI mammary tumor; day 23 post graft
  Number of mice dead or sacrificed: 3
MXT-HI mammary tumor; day 26 post graft
  Number of mice dead or sacrificed: 4
MXT-HI mammary tumor; day 28 post graft
  Number of mice dead or sacrificed: 1
